Test results published in publication PMC5478727, “A Novel Small Molecule GDNF Receptor RET Agonist, BT13, Promotes Neurite Growth from Sensory Neurons in Vitro and Attenuates Experimental Neuropathy in the Rat” (Frontiers in Pharmacology, 2017).

Columns and labels:
TrkA = molecular target: T1, TrkA (Rattus norvegicus, UniProt P35739); experiment: Luciferase reporter-gene assay, TrkA reporter cells; format: cell-based; conditions: TrkA reporter cell line
T1 construct: expressed in transfected cells; host or cells: MG87 murine fibroblasts (MG87TrkA)

TrkB = molecular target: T2, TrkB (Rattus norvegicus, UniProt Q63604); experiment: Luciferase reporter-gene assay, TrkB reporter cells; format: cell-based; conditions: TrkB reporter cell line
T2 construct: expressed in transfected cells; host or cells: MG87 murine fibroblasts (MG87TrkB)

[1] = system: Akt and Erk phosphorylation in MG87TrkA; experiment: Erk1/2 and Akt phosphorylation assay in MG87TrkA cells; format: cell-based, murine; conditions: BT13 10–100 μM, NGF positive control
Protocol: MG87RET, MG87TrkA, or MG87TrkB were plated on 35 mm tissue culture dishes 1–2 days before the experiment to achieve 90–95% of confluency of the cells at the day of stimulation with tested substances. If necessary, cells were transfected with 4 μg/well of GFRα1-, GFRα3-, or green fluorescent protein (GFP)-expressing plasmid using Lipofectamine 2000 (Invitrogen) for DNA delivery as described by manufacturer. Before the experiment cells were starved in serum-free DMEM containing 15 mM HEPES, pH 7.2 and 1% DMSO for 4 h and stimulated with BT13 or neurotrophic factors. Then cells were washed once with ice-cold PBS containing 1 mM Na3VO4 and 1 mM NaF and lysed on ice in 1 ml per well of RIPA-modified buffer (50 mM Tris-HCl, pH 7.4, 150 mM NaCl, 1 mM EDTA, 1% NP-40, 1% TX-100, 10% glycerol, EDTA-free protease inhibitor cocktail (Roche), 1 mM Na3VO4, 2.5 mg/ml of sodium deoxycholate, 1 mM NaF). Plates were incubated at +4°C on the horizontal shaker for 30 min with vigorous shaking. Afterwards, 80–100 μl aliquot was taken from each well to prepare whole cell lysates. This aliquot was mixed with equal volume of 2x Laemmli loading buffer (4% SDS, 20% glycerol, 10% 2-mercaptoethanol, 0.004% bromphenol blue, 0.125 M Tris HCl, pH 6.8) and boiled for 10 min at 100°C. Remaining cell lysates were used for immunoprecipitation of RET or Trk receptors. […]

[2] = Plasma stability, mouse plasma; format: in vitro ADME; conditions: read-out: Plasma stability (% remaining after 1 h)
CYP2C9 = molecular target: T3, CYP2C9 (Homo sapiens, UniProt P11712); experiment: CYP inhibition, fluorescent assay; format: biochemical; conditions: read-out: Inhibition of CYP isoforms (IC50), CYP2C9
T3 construct: Cyathus Exquirere (contract laboratory)

adenosine receptor A2B = molecular target: T4, adenosine receptor A2B (Homo sapiens, UniProt P29275); experiment: CEREP A2B (h) (antagonist radioligand); format: binding; conditions: BT13 1 μM; Cat. No. 0005; average of duplicate; read-out: Percentage of inhibition/potentiation from control
T4 construct: purchased CEREP (contract assay) Cat# 0005

[3] = molecular target: T5, adrenergic receptor beta 3 (Homo sapiens, UniProt P13945); experiment: CEREP Beta 3 (non-selective; antagonist radioligand); format: binding; conditions: BT13 1 μM; Cat. No. 3963; average of duplicate; read-out: Percentage of inhibition/potentiation from control
T5 construct: purchased CEREP (contract assay) Cat# 3963

cannabinoid receptor CB1 = cannabinoid receptor CB1 (Homo sapiens, UniProt P21554); experiment: CEREP CB1 (h) (agonist radioligand); format: binding; conditions: BT13 1 μM; Cat. No. 0036; average of duplicate; read-out: Percentage of inhibition/potentiation from control
[4] = molecular target: cholecystokinin receptor CK1 (CCKA) (Homo sapiens, UniProt P32238); experiment: CEREP CK1 (CCKA) (h) (agonist radioligand); format: binding; conditions: BT13 1 μM; Cat. No. 0039; average of duplicate; read-out: Percentage of inhibition/potentiation from control
[5] = molecular target: cholecystokinin receptor CCK2 (CCKB) (Homo sapiens, UniProt P32239); experiment: CEREP CCK2 (CCKB) (h) (agonist radioligand); format: binding; conditions: BT13 1 μM; Cat. No. 0041; average of duplicate; read-out: Percentage of inhibition/potentiation from control
dopamine receptor D1 = dopamine receptor D1 (Homo sapiens, UniProt P21728); experiment: CEREP D1 (h) (antagonist radioligand); format: binding; conditions: BT13 1 μM; Cat. No. 0044; average of duplicate; read-out: Percentage of inhibition/potentiation from control
neurotensin receptor NT = experiment: CEREP NT (non-selective; agonist radioligand); format: binding; conditions: BT13 1 μM; Cat. No. 0465; average of duplicate
[6] = molecular target: T6, opioid receptor delta (DOP) (Mus musculus, UniProt P32300); experiment: CEREP Delta (DOP) (agonist effect); format: cell-based; conditions: BT13 1 μM, Cat. No. 2568, average of duplicate, read-out: Percentage of inhibition/potentiation from control
T6 construct: purchased CEREP (contract assay) 2568

[7] = molecular target: T7, serotonin receptor 5-HT2A (Homo sapiens, UniProt P28223); experiment: CEREP 5-HT2A (h) (agonist radioligand); format: binding; conditions: BT13 1 μM; Cat. No. 0471; average of duplicate; read-out: Percentage of inhibition/potentiation from control
T7 construct: purchased CEREP (contract assay) 0471

RET mRNA in DRGs = experiment: qPCR of RET mRNA in DRGs of animals with SNL; format: in vivo, rat; conditions: SNL rats; BT13-treated vs vehicle-treated
[8] = Solubility in the binding buffer; format: physicochemical; conditions: concentrations above 50 μM could not be tested
[9] = molecular target: norepinephrine transporter (Homo sapiens, UniProt P23975); experiment: biochemical; conditions: read-out: Percentage of inhibition/potentiation from control
Sequence of norepinephrine transporter (P23975 whole entry): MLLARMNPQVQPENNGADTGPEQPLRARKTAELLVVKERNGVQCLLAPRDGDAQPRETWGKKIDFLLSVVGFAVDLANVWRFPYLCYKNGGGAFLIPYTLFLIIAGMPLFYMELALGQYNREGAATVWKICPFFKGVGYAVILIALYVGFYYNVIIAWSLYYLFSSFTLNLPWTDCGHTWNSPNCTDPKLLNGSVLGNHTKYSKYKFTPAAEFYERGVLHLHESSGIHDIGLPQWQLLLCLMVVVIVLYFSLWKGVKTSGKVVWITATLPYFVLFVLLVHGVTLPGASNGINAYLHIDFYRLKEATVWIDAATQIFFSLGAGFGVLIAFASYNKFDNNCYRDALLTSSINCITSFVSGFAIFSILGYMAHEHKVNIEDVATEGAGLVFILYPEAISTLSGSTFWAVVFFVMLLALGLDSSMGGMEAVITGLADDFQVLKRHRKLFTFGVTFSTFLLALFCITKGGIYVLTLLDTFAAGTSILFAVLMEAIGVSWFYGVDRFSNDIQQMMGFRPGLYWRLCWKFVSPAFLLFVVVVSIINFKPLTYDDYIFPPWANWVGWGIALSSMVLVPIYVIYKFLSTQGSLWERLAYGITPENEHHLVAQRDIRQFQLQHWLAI

Sequence of cholecystokinin receptor CCK2 (CCKB) (P32239 whole entry): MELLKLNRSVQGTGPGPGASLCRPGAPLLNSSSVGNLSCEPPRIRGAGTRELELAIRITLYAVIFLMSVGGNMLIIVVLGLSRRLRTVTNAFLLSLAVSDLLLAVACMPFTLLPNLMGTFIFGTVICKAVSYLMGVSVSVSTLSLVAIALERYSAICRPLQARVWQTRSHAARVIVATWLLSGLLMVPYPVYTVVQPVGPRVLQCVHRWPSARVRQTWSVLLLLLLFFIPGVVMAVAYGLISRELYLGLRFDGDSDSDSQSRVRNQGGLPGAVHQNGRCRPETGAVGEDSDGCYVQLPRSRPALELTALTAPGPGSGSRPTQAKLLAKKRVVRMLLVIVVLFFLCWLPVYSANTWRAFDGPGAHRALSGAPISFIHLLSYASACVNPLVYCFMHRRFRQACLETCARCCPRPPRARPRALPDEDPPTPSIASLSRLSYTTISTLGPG
T6 sequence (P32300 whole entry): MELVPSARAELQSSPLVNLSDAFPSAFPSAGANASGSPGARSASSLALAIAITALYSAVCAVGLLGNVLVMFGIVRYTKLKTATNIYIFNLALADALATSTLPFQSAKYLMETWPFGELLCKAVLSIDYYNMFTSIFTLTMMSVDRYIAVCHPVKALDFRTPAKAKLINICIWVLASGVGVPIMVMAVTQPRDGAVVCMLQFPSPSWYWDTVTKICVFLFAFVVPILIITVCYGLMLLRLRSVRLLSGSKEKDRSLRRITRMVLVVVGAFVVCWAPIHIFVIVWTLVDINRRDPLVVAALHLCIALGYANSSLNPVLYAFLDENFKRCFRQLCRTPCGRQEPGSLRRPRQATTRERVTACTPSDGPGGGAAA
Sequence of dopamine receptor D1 (P21728 whole entry): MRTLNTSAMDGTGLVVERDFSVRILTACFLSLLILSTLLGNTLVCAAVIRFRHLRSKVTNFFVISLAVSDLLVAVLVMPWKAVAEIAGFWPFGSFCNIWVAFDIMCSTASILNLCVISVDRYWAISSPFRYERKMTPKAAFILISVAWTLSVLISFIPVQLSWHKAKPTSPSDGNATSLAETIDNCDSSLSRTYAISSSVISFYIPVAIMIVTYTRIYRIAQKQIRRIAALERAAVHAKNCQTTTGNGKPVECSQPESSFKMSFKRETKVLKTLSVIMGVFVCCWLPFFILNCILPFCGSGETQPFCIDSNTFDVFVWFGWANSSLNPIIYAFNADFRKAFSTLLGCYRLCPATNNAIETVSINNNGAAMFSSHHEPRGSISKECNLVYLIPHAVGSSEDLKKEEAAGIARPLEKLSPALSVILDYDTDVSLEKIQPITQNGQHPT
T2 sequence (Q63604 32-821): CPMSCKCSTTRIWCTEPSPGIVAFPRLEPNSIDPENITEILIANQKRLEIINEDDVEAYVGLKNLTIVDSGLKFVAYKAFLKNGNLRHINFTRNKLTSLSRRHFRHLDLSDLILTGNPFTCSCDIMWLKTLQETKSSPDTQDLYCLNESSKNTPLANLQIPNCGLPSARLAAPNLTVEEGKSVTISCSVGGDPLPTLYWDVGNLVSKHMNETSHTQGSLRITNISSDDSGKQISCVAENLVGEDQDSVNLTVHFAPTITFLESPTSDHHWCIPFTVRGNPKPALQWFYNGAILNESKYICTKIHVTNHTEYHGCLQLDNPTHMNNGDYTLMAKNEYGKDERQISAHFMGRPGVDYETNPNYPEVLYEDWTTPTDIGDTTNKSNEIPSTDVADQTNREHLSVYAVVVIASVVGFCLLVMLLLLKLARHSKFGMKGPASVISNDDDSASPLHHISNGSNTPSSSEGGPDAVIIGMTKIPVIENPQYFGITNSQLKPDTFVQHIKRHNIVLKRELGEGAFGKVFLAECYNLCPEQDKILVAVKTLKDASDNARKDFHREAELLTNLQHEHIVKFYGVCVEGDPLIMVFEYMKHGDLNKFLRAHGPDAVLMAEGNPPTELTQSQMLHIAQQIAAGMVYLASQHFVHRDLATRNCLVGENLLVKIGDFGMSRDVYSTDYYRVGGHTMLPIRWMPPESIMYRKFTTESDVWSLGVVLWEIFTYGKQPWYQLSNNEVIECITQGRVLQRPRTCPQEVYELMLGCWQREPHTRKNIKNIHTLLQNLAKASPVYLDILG
T5 sequence (P13945 whole entry): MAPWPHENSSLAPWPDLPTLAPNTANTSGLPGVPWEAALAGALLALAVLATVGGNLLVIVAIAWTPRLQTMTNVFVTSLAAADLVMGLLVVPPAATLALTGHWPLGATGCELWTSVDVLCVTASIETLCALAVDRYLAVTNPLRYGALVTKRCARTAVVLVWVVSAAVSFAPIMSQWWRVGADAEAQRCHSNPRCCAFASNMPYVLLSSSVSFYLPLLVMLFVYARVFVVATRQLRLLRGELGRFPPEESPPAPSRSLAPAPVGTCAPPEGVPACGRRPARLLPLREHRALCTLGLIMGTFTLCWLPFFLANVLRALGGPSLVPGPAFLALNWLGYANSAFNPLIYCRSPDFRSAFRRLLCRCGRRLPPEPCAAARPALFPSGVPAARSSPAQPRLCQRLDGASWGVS
Sequence of cholecystokinin receptor CK1 (CCKA) (P32238 whole entry): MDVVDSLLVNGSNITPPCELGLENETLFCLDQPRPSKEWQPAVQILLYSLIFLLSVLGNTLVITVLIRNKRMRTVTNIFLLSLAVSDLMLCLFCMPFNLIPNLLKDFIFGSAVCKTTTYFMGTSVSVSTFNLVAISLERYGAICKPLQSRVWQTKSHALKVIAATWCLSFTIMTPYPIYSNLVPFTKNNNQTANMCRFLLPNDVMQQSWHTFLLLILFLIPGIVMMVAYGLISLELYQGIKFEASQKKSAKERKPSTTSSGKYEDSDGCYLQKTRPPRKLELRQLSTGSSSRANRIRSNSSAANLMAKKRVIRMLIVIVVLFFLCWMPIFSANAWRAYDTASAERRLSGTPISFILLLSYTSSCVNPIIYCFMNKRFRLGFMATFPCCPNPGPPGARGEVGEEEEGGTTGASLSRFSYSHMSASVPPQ
Sequence of cannabinoid receptor CB1 (P21554 whole entry): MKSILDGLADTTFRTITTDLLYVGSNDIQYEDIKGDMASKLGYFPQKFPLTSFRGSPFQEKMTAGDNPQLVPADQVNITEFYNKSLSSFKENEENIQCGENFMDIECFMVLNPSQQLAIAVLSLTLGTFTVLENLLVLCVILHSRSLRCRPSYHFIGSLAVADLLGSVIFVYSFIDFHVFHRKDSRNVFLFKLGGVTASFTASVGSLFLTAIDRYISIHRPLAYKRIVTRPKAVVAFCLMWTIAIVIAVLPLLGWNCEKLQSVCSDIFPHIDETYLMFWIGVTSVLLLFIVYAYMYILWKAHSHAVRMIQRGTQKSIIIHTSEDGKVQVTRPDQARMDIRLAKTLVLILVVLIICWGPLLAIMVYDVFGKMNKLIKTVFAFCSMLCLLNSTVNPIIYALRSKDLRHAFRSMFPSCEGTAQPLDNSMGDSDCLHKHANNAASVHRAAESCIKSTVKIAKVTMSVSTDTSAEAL
T7 sequence (P28223 whole entry): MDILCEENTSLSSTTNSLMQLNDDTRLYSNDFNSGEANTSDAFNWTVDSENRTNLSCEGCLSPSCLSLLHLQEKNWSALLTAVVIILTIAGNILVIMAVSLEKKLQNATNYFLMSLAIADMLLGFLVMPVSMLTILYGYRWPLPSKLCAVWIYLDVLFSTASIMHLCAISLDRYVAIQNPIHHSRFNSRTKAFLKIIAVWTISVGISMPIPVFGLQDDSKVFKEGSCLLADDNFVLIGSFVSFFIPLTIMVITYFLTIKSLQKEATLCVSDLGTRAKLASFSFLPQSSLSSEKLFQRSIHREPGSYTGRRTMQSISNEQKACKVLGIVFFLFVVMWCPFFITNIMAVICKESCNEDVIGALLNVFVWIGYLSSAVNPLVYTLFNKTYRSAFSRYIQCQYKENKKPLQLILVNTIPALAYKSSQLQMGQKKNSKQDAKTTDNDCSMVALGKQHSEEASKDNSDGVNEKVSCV
T4 sequence (P29275 whole entry): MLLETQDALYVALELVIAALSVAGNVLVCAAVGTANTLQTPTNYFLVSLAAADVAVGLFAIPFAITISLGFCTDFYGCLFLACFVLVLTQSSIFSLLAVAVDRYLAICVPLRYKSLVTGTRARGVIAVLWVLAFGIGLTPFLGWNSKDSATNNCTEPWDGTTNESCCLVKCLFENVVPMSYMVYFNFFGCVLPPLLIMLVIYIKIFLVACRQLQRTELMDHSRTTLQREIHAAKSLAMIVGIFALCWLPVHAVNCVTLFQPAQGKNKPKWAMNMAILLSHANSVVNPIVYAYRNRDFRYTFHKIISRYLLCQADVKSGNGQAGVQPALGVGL

Question: Which “activation of luciferase reporter” value (TrkA) does the source give for `CCN(CC)S(=O)(=O)c1ccc(OC)c(N2CCN(C(=O)c3ccc(F)cc3C(F)(F)F)CC2)c1` [BT13] here?
Answer: The value was “did not activate luciferase”.

Question: What about the “activation of luciferase reporter” value (TrkB) of the same molecule?
Answer: Its value is “did not activate luciferase”.

Question: What about the “Akt and Erk phosphorylation” value [1] of the same molecule?
Answer: Its value is “no Akt or Erk phosphorylation was observed”.

Question: What about the remaining at 1 h [2] of the same molecule?
Answer: The remaining at 1 h was 110 ± 3.1%.

Question: What about the IC50 (CYP2C9) of the same molecule?
Answer: The IC50 was greater than 100 µM.

Question: What about the inhibition at 1 µM (adenosine receptor A2B) of the same molecule?
Answer: Its inhibition at 1 µM is -14%.

Question: And the inhibition at 1 µM [3]?
Answer: Its inhibition at 1 µM is -5%.

Question: What about the inhibition at 1 µM (cannabinoid receptor CB1) of the same molecule?
Answer: Its inhibition at 1 µM is 9%.

Question: What about the inhibition at 1 µM [4] of the same molecule?
Answer: Its inhibition at 1 µM is 3%.

Question: What about the inhibition at 1 µM [5] of the same molecule?
Answer: Its inhibition at 1 µM is 1%.

Question: What about the inhibition at 1 µM (dopamine receptor D1) of the same molecule?
Answer: The inhibition at 1 µM was -17%.

Question: And the “Percentage of inhibition/potentiation from control” value (neurotensin receptor NT)?
Answer: The value was −6%.

Question: And the inhibition at 1 µM [6]?
Answer: The inhibition at 1 µM was -5.2%.

Question: What about the inhibition at 1 µM [7] of the same molecule?
Answer: Its inhibition at 1 µM is -11%.

Question: What about the “mRNA level of RET in DRGs” value (RET mRNA in DRGs) of the same molecule?
Answer: The value was “no difference”.

Question: What about the “solubility in the binding buffer” value [8] of the same molecule?
Answer: Its value is “poor solubility”.

Question: And the inhibition at 1 µM [9]?
Answer: Its inhibition at 1 µM is -5%.
